As a reminder, the Dmax is the greatest extent of degradation seen. The term DC50 denotes the concentration giving 50% degradation.

Where two headings read alike, the source gives them in different places. Bounds are passed on as bounds.

Experimental findings from patent US20260092071A1, “COMPOUNDS AND COMPOSITIONS AS SMARCA2/4 DEGRADERS AND USES THEREOF” (REGENTS OF THE UNIVERSITY OF MICHIGAN, priority 2022, published 2026) are described below.

One assay concerns the target SMARCA4 (Homo sapiens, UniProt P51532). The experiment in a line: HiBiT assay for protein degradation, Hela SMARCA4-HiBiT cells (A series). It is filed as cell-based. On the set-up: fuse HiBiT to the carboxy terminus of SMARCA2 (Promega CS302365) or SMARCA4 (Promega CS3023225); host or cells: HeLa (CRISPR/Cas9 HiBiT knock-in). The settings on record: for DC50: read-out: SMARC A4 Hela HiBit DC50. In outline: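 SMARCA4 degradation was measured in HeLa cells in which HiBiT had been knocked into the SMARCA4 carboxy terminus via CRISPR/Cas9 (Promega CS3023225). Cells were maintained in DMEM with FBS and penicillin-streptomycin. At the end of treatment, SMARCA4 levels were read by lytic HiBiT luminescence (Nano-Glo®, Promega N3050), and data were analyzed with GraphPad Prism.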

The target of a further assay is SMARCA2 (Homo sapiens, UniProt P51531). Briefly: HiBiT assay for protein degradation, Hela SMARCA2-HiBiT cells (A series). The assay is classed as cell-based. On the set-up: Hela cells were genetically modified via CRISPR/Cas9 to fuse HiBiT to the carboxy terminus of SMARCA2; host or cells: HeLa (CRISPR/Cas9 HiBiT knock-in). The settings on record: for DC50: read-out: SMARC A2 Hela HiBit DC50; for Dmax: read-out: SMARC A2 Hela HiBit Dmax (%). The procedure, abridged: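 SMARCA2 degradation was measured in HeLa cells whose endogenous SMARCA2 carries a carboxy-terminal HiBiT tag introduced by CRISPR/Cas9 (Promega CS302365). Cells were maintained in DMEM with FBS and penicillin-streptomycin. SMARCA2 levels were read at the end of the experiment by Nano-Glo® HiBiT lytic luminescence (Promega N3050) and analyzed in GraphPad Prism.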
Sequence of SMARCA2 (P51531 whole entry): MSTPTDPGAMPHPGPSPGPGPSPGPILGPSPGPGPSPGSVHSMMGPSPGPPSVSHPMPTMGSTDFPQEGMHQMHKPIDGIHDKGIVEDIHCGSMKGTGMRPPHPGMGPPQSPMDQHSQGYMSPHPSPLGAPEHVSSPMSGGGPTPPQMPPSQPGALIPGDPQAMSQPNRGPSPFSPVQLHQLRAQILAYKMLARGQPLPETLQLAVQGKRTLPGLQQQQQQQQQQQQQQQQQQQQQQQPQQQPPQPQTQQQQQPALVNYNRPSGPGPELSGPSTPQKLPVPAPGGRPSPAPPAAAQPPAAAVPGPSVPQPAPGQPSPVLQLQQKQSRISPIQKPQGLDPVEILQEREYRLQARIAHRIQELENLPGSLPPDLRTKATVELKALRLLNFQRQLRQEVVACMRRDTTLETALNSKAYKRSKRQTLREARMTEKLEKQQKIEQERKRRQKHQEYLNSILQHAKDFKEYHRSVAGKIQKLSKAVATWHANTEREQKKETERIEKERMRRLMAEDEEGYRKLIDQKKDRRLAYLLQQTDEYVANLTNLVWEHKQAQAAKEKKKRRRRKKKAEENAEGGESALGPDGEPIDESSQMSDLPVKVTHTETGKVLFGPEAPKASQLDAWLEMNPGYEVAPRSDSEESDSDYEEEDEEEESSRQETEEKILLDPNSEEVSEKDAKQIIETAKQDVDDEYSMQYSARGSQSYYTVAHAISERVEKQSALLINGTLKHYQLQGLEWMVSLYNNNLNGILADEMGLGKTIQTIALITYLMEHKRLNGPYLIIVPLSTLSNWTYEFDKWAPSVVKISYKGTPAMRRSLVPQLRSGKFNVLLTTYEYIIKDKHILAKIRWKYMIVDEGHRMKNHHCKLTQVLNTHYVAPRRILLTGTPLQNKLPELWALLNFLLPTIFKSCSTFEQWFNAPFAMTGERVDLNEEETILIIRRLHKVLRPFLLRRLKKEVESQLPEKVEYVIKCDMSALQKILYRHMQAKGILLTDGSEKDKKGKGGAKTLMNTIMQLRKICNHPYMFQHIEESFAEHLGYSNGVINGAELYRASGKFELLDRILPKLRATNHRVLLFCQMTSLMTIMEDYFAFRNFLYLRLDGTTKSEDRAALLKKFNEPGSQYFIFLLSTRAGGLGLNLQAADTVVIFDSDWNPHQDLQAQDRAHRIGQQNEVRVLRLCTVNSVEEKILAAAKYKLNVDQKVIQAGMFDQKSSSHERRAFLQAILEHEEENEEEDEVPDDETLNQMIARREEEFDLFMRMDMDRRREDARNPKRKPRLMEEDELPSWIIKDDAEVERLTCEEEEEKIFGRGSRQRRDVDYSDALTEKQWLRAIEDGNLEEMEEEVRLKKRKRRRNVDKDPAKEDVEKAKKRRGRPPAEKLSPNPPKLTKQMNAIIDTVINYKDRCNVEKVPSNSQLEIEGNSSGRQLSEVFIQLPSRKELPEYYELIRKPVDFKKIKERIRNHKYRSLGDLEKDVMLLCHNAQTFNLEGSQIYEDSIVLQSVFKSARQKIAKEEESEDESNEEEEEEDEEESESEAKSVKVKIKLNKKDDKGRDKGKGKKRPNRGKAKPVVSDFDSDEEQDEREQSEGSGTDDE
On the technique in general: With HiBiT, luminescence reflects the tagged protein that the partner subunit can reach.

The mark [1] stands for this setting: Hela SMARCA4-HiBiT cells, 24 hours treatment.
Where [2] appears, read: Hela SMARCA4-HiBiT cells, 24 hours treatment, read-out: SMARC A4 Hela HiBit Dmax.
Setting [3] is: Hela SMARCA2-HiBiT cells, 24 hours treatment.

Sequence of SMARCA4 (P51532 whole entry): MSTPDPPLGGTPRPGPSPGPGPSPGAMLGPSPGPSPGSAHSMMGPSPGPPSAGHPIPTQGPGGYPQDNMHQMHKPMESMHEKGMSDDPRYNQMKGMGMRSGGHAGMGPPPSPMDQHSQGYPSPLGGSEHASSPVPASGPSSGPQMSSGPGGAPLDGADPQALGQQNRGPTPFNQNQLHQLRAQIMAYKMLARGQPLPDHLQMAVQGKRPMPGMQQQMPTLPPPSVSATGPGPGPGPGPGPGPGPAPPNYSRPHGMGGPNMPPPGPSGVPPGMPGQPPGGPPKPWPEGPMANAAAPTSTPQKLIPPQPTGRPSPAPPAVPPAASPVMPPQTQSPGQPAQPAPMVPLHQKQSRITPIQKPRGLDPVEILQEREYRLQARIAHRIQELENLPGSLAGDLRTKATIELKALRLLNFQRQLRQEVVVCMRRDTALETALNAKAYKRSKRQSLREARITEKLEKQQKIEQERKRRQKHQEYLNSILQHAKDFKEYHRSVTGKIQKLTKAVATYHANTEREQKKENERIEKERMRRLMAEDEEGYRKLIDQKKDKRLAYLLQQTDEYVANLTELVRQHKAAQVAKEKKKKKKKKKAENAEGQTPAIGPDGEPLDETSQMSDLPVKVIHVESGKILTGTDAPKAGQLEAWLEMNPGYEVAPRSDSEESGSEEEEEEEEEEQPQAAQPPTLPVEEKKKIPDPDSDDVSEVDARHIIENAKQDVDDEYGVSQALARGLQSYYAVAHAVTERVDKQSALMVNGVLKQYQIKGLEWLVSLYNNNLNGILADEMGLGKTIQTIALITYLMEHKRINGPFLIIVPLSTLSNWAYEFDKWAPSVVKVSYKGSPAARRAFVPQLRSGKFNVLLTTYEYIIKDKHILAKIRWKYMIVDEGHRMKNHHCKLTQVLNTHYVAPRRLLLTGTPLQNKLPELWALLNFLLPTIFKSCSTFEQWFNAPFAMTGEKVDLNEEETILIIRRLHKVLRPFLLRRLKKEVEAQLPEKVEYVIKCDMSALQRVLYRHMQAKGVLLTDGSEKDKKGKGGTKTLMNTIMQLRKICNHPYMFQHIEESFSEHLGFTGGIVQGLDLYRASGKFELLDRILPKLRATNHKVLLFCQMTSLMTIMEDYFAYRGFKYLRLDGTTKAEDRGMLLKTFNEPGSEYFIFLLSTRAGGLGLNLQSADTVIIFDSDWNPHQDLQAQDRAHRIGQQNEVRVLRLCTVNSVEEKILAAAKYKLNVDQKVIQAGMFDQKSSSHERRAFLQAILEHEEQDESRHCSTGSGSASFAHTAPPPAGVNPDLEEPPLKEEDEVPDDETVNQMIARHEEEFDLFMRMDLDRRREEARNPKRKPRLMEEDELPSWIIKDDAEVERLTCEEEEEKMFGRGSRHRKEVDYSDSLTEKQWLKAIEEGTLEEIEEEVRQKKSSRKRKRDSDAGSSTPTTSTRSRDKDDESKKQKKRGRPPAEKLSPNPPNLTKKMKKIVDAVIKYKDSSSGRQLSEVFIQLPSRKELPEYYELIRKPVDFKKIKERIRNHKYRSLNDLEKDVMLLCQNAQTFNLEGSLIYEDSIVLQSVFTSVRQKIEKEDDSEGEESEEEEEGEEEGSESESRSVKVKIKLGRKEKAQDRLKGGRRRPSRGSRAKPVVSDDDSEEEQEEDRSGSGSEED

Take `Cc1ncsc1-c1ccc([C@H](CN2CCOCC2)NC(=O)[C@@H]2C[C@@H](O)CN2C(=O)[C@H](C2CCCCC2)n2cc([C@H]3CC[C@H](CN4CCC(c5ccc6c(c5)-n5c(nc(=O)c7c(Cl)cccc75)C6(C)C)CC4)CC3)nn2)cc1` [Compound A125, (2S,4R)-1-((S)-2-(4-((1r,4S)-4-((4-(4-chloro-7,7-dimethyl-5-oxo-5,7-dihydroindolo[1,2-a]quinazolin-10-yl)piperidin-1-yl)methyl)cyclohexyl)-1H-1,2,3-triazol-1-yl)-2-cyclohexylacetyl)-4-hydroxy-N—((R)-1-(4-(4-methylthiazol-5-yl)phenyl)-2-morpholinoethyl)pyrrolidine-2-carboxamide]: the “SMARC A4 Hela HiBit DC50(nM)” value on SMARCA4 (setting [1]) was “No fit”. Moreover, the Dmax at SMARCA4 (setting [2]) lay within 50 to 69%. Further, at SMARCA2 (setting [3]), the DC50 was below 10 nM and the Dmax was above 90%.

Take `COC(=O)C[C@H](NC(=O)[C@@H]1C[C@@H](O)CN1C(=O)[C@@H](n1cc([C@H]2CC[C@H](CN3CCC(c4ccc5c(c4)-n4c(nc(=O)c6c(Cl)cccc64)C54CCCCC4)CC3)CC2)nn1)C(C)(C)C)c1ccc(-c2scnc2C)cc1` [Compound A145, methyl(S)-3-((2S,4R)-1-((S)-2-(4-((1r,4S)-4-((4-(4′-chloro-5′-oxo-5′H-spiro[cyclohexane-1,7′-indolo[1,2-a]quinazolin]-10′-yl)piperidin-1-yl)methyl)cyclohexyl)-1H-1,2,3-triazol-1-yl)-3,3-dimethylbutanoyl)-4-hydroxypyrrolidine-2-carboxamido)-3-(4-(4-methylthiazol-5-yl)phenyl) propanoate]: the 50% degradation concentration (DC50) on SMARCA4 (setting [1]) was above 1000 nM; on SMARCA2 (setting [3]), below 10 nM. Besides, the Dmax was 50 to 69% on SMARCA4 (setting [2]) and above 90% at SMARCA2 (setting [3]).

For the molecule `CC(C)(C)[C@@H](C(=O)N1C[C@H](O)C[C@H]1C(=O)N[C@@H](CN1CCOCC1)c1ccc(-c2scnc2C(F)(F)F)cc1)n1cc([C@H]2CC[C@H](CN3CCC(c4ccc5c(c4)-n4c(nc(=O)c6c(Cl)cccc64)C54CCCCC4)CC3)CC2)nn1` [Compound A167, (2S,4R)-1-((S)-2-(4-((1r,4S)-4-((4-(4′-chloro-5′-oxo-5′H-spiro[cyclohexane-1,7′-indolo[1,2-a]quinazolin]-10′-yl)piperidin-1-yl)methyl)cyclohexyl)-1H-1,2,3-triazol-1-yl)-3,3-dimethylbutanoyl)-4-hydroxy-N—((R)-2-morpholino-1-(4-(4-(trifluoromethyl)thiazol-5-yl)phenyl)ethyl)pyrrolidine-2-carboxamide], the DC50 at SMARCA4 (setting [1]) and at SMARCA2 (setting [3]) was above 1000 nM throughout. Also, the Dmax at SMARCA4 (setting [2]) and at SMARCA2 (setting [3]) was below 50% in each case.

As to `Cc1ncsc1-c1ccc([C@H](CCCCCN2CCC(c3ccc4c(c3)C3(CCCCC3)c3nc(=O)c5c(Br)cccc5n3-4)CC2)NC(=O)[C@H]2C[C@H](O)CN2C(=O)[C@@H](n2cc(C3CC3)nn2)C(C)(C)C)cc1` [Compound A35, (2R,4S)—N—((S)-6-(4-(4′-bromo-5′-oxo-5′H-spiro[cyclohexane-1,7′-indolo[1,2-a]quinazolin]-9′-yl)piperidin-1-yl)-1-(4-(4-methylthiazol-5-yl)phenyl)hexyl)-1-((S)-2-(4-cyclopropyl-1H-1,2,3-triazol-1-yl)-3,3-dimethylbutanoyl)-4-hydroxypyrrolidine-2-carboxamide], the DC50 at SMARCA4 (setting [1]) and at SMARCA2 (setting [3]) was below 100 nM in each case. Besides, the Dmax on SMARCA4 (Hela SMARCA4-HiBiT cells, 24 hours treatment, read-out: SMARC A4 Hela HiBit Dmax(%)) was above 90%; at SMARCA2 (setting [3]) it was above 90%.

For the molecule `COC(=O)C1CCN(C[C@H](NC(=O)[C@@H]2C[C@@H](O)CN2C(=O)[C@@H](n2cc([C@H]3CC[C@H](CN4CCC(c5ccc6c(c5)-n5c(nc(=O)c7c(Cl)cccc75)C65CCCCC5)CC4)CC3)nn2)C(C)(C)C)c2ccc(-c3scnc3C)cc2)CC1` [Compound A153, methyl 1-((R)-2-((2S,4R)-1-((S)-2-(4-((1r,4S)-4-((4-(4′-chloro-5′-oxo-5′H-spiro[cyclohexane-1,7′-indolo[1,2-a]quinazolin]-10′-yl)piperidin-1-yl)methyl)cyclohexyl)-1H-1,2,3-triazol-1-yl)-3,3-dimethylbutanoyl)-4-hydroxypyrrolidine-2-carboxamido)-2-(4-(4-methylthiazol-5-yl)phenyl)ethyl)piperidine-4-carboxylate], the DC50 is above 1000 nM on SMARCA4 (setting [1]) and below 10 nM at SMARCA2 (setting [3]). Also, the Dmax is 50 to 69% at SMARCA4 (setting [2]) and above 90% on SMARCA2 (setting [3]).

For `Cc1ncsc1-c1ccc([C@H](CN2CCOCC2)NC(=O)[C@@H]2C[C@@H](O)CN2C(=O)[C@H](C2CCOCC2)n2cc([C@H]3CC[C@H](CN4CCC(c5ccc6c(c5)-n5c(nc(=O)c7c(Cl)cccc75)C6(C)C)CC4)CC3)nn2)cc1` [Compound A102, (2S,4R)-1-((S)-2-(4-((1r,4S)-4-((4-(4-chloro-7,7-dimethyl-5-oxo-5,7-dihydroindolo[1,2-a]quinazolin-10-yl)piperidin-1-yl)methyl)cyclohexyl)-1H-1,2,3-triazol-1-yl)-2-(tetrahydro-2H-pyran-4-yl)acetyl)-4-hydroxy-N-((R)-1-(4-(4-methylthiazol-5-yl)phenyl)-2-morpholinoethyl)pyrrolidine-2-carboxamide], the DC50 was above 1000 nM on SMARCA4 (setting [1]) and below 10 nM at SMARCA2 (setting [3]). Moreover, the Dmax at SMARCA4 (setting [2]) was 50 to 69%; on SMARCA2 (setting [3]), above 90%.

Turning to `Cc1ncsc1-c1ccc([C@H](CN2CCOCC2)NC(=O)[C@@H]2C[C@@H](O)CN2C(=O)[C@@H](NC(=O)C2CC(CN3CCC(c4ccc5c(c4)C4(CCCCC4)c4nc(=O)c6c(Br)cccc6n4-5)CC3)C2)C(C)(C)C)cc1` (stereo partly drawn) [Compound A21, (2S,4R)-1-((S)-2-(3-((4-(4′-bromo-5′-oxo-5′H-spiro[cyclohexane-1,7′-indolo[1,2-a]quinazolin]-9′-yl)piperidin-1-yl)methyl)cyclobutane-1-carboxamido)-3,3-dimethylbutanoyl)-4-hydroxy-N—((R)-1-(4-(4-methylthiazol-5-yl)phenyl)-2-morpholinoethyl)pyrrolidine-2-carboxamide], the “SMARC A4 Hela HiBit Dmax(%)” value on SMARCA4 (setting [1]) was “C (C (50-69% degradation))”. For the same molecule, the DC50 on SMARCA4 and on SMARCA2 was 100 to 500 nM in each case. In addition, the “SMARC A2 Hela HiBit Dmax (%)” value on SMARCA2 (setting [3]) is recorded as “A (A (>90% degradation))”.

Turning to `Cc1ncsc1-c1ccc([C@H](CO)NC(=O)[C@@H]2C[C@@H](O)CN2C(=O)[C@H](C2CCCCC2)n2cc([C@H]3CC[C@H](CN4CCC(c5ccc6c(c5)-n5c(nc(=O)c7c(Cl)cccc75)C65CCCCC5)CC4)CC3)nn2)cc1` [Compound A126, (2S,4R)-1-((S)-2-(4-((1r,4S)-4-((4-(4′-chloro-5′-oxo-5′H-spiro[cyclohexane-1,7′-indolo[1,2-a]quinazolin]-10′-yl)piperidin-1-yl)methyl)cyclohexyl)-1H-1,2,3-triazol-1-yl)-2-cyclohexylacetyl)-4-hydroxy-N—((R)-2-hydroxy-1-(4-(4-methylthiazol-5-yl)phenyl)ethyl)pyrrolidine-2-carboxamide], the DC50 on SMARCA4 (setting [1]) was 10 to 100 nM; at SMARCA2 (setting [3]), below 10 nM. The Dmax at SMARCA4 (setting [2]) was 50 to 69%; at SMARCA2 (setting [3]), above 90%.

As for `Cc1ncsc1-c1ccc([C@H](C)NC(=O)[C@@H]2C[C@@H](O)CN2C(=O)[C@@H](n2cc([C@H]3CC[C@H](CN4CCC(c5ccc6c(n5)-n5c(nc(=O)c7c(Cl)cccc75)C65CCCCC5)CC4)CC3)nn2)C(C)(C)C)cc1` [Compound A78, (2S,4R)-1-((S)-2-(4-((1r,4S)-4-((4-(4′-chloro-5′-oxo-5′H-spiro[cyclohexane-1,7′-pyrido[3′,2′: 4,5]pyrrolo[1,2-a]quinazolin]-10′-yl)piperidin-1-yl)methyl)cyclohexyl)-1H-1,2,3-triazol-1-yl)-3,3-dimethylbutanoyl)-4-hydroxy-N—((S)-1-(4-(4-methylthiazol-5-yl)phenyl)ethyl)pyrrolidine-2-carboxamide], the DC50 at SMARCA4 (setting [1]) is above 1000 nM; at SMARCA2 (setting [3]), 10 to 100 nM. For the same molecule, at SMARCA2 (HeLa), the Dmax was in the range of 70 to 90%.
